Measurements as given in patent US8574831B2, “Mutational profiles in HIV-1 reverse transcriptase correlated with phenotypic drug resistance” (Virco N.V., priority 2000, dated 2013).

Test system: HIV with mutations in the HIV protease sequence
Assay: Phenotypic fold resistance to protease inhibitors, protease mutations 84A/84L/84C/54M/54L/54V in a background (Examples 8-13)
Format: cell-based, HIV-1
Method: As is the case with the genotyping assays, the recombinant virus assay starts with the amplification of viral target sequences by means of PCR. The amplicons are incorporated into a proviral laboratory clone with sequences homologous to those present in the amplicon deleted. This generates a stock of chimeric viruses. The viruses are tested for their ability to grow in the presence of different concentrations of drugs. Results are obtained by calculating IC50 values for each inhibitor and by reporting the results as IC50 values, expressed in μM concentrations, or by computing the ratio of the IC50 values found for the chimeric virus to the IC50 values found for a wild type susceptible laboratory virus tested in parallel. In the latter case, resistance is expressed as “fold-resistance” compared to a wild-type susceptible HIV-1 strain. In order to meet the need for high-volume testing and a short turn-around time for an individual test, the latest generation of phenotyping assays has undergone further modifications. The use of reporter gene systems for susceptibility testing allows the implementation of laboratory automation and standardization. See Pauwels, et al., J. Virol. Methods 20, 309-321 (1998); Paulous, S., et al., International Workshop on HIV Drug Resistance, Treatment Strategies and Eradication, St. Petersburg, Fla., USA. Abstr. 46 (1997); and Deeks, S. G., et al., 2nd International Workshop on HIV Drug Resistance and Treatment Strategies, Lake Maggiore, Italy. Abstr. 53 (1998).
The ANTIVIROGRAM® assay (Virco) (WO 97/27480) is based on homologous recombination of patient derived HIV-1 gag/PR/RT sequences into a proviral HIV-1 clone correspondingly deleted for the gag/PR/RT sequences. See Pauwels, et al., J. Virol. Methods 20, 309-321 (1998). A similar assay (Phenosense ViroLogic) is based on enzymatic ligation of patient-derived PR/RT sequences into a correspondingly deleted proviral vector carrying an indicator gene, luciferase, inserted in the deleted HIV-1 envelope gene. See Deeks, S. G., et al., 2nd International Workshop on HIV Drug Resistance and Treatment Strategies, Lake Maggiore, Italy. Abstr. 53 (1998). Hertogs et al. Antimicrob. Agents Chemother. 44(3) 568-573 (2000) the disclosures of which are herein incorporated by reference.
The methods of monitoring HIV-1 drug resistance, may also be used in combination with phenotypic drug resistance testing of viral isolates. For example, in one embodiment, a phenotypic test is utilized that is based upon the construction of chimeric HIV-1 strains composed of the protease (PR) and reverse transcriptase (RT) gene sequences which are isolated and amplified from the patient viral RNA. These strains may subsequently be recombined inside CD4+ T cells with a standard laboratory isogenic (HXB2) HIV-1 DNA construct from which the PR/RT gene sequences were deleted. The recombinant strains may then be grown in the presence of the above-mentioned antiviral drugs and the susceptibility of the viral isolates may be expressed as fold-change value of the IC50 of the drug on the patient isolates over the IC50 of the drug on a wild-type laboratory reference strain.

In the case of `Cc1c(O)cccc1C(=O)N[C@@H](CSc1ccccc1)[C@H](O)CN1C[C@H]2CCCC[C@H]2C[C@H]1C(=O)NC(C)(C)C` [Nelfinavir, nelfinavir], the “mean fold increase in resistance” value (Table 9 #1, protease genotype WT) is reported as 0.7 fold, the “mean fold increase in resistance” value (Table 9 #2, protease genotype 10I) is reported as 1 fold and the “mean fold increase in resistance” value (Table 9 #3, protease genotype 46I) is reported as 1.5 fold. For the same molecule, the “mean fold increase in resistance” value (Table 9 #4, protease genotype 46I + 84V) was 5.6 fold, the “mean fold increase in resistance” value (Table 9 #5, protease genotype 46I + 84A) was 61.9 fold and the “mean fold increase in resistance” value (Table 9 #6, protease genotype 10I + 46I) was 0.8 fold. The “mean fold increase in resistance” value (Table 9 #7, protease genotype 10I + 46I + 84V) was 3.1 fold, the “mean fold increase in resistance” value (Table 9 #8, protease genotype 10I + 46I + 84A) was 43.9 fold and the “mean fold increase in resistance” value (Table 9 #9, protease genotype 10L/I + 46I + 84A) was 56.2 fold. For the same molecule, the “mean fold increase in resistance” value (Table 9 #10, protease genotype 10I + 46I + 84A) was 36.9 fold, the “mean fold increase in resistance” value (Table 9 #11, protease genotype 46I + 71V) was 1 fold and the “mean fold increase in resistance” value (Table 9 #12, protease genotype 46I + 71V + 84V/I) was 0.7 fold. For the same molecule, the “mean fold increase in resistance” value (Table 9 #13, protease genotype 46I + 71V + 84A) was 59.9 fold, the “mean fold increase in resistance” value (Table 9 #14, protease genotype 10F + 46I + 71V) was 45.2 fold and the “mean fold increase in resistance” value (Table 9 #15, protease genotype 10I + 46I + 71V + 84V) was 57.1 fold. For the same molecule, the “mean fold increase in resistance” value (Table 9 #16, protease genotype 10I + 46I + 71V + 84A) was 54.9 fold, the “mean fold increase in resistance” value (Table 9 #17, protease genotype 10V + 46I + 71T + 84A) was 51.2 fold and the “mean fold increase in resistance” value (Table 9 #18, protease genotype 10I + 46I + 71V + 77I) was 6.1 fold. The “mean fold increase in resistance” value (Table 9 #19, protease genotype 10I + 46I + 71V + 77I + 84V) was 2.8 fold, the “mean fold increase in resistance” value (Table 9 #20, protease genotype 10I + 46I + 71V + 77I + 84A) was 68.6 fold and the “mean fold increase in resistance” value (Table 9 #21, protease genotype 10I + 33L/I + 46I + 71V + 77V/I + 84A) was 63.1 fold. The “mean fold increase in resistance” value (Table 10 #1, protease genotype 10I + 36I + 71V) was 1.5 fold, the “mean fold increase in resistance” value (Table 10 #2, protease genotype 10I + 36I + 71I + 84V) was 0.8 fold and the “mean fold increase in resistance” value (Table 10 #3, protease genotype 10I + 36I + 71I + 84L) was 39.4 fold. The “mean fold increase in resistance” value (Table 11 #1, protease genotype WT) was 0.7 fold, the “mean fold increase in resistance” value (Table 11 #2, protease genotype 84V) was 0.9 fold and the “mean fold increase in resistance” value (Table 11 #3, protease genotype 84C) was 51.2 fold. For the same molecule, the “mean fold increase in resistance” value (Table 11 #4, protease genotype 10I) was 1.0 fold, the “mean fold increase in resistance” value (Table 11 #5, protease genotype 10I + 84V) was 2.0 fold and the “mean fold increase in resistance” value (Table 11 #6, protease genotype 10I + 84C) was 61.9 fold. The “mean fold increase in resistance” value (Table 11 #7, protease genotype 77I) was 0.9 fold, the “mean fold increase in resistance” value (Table 11 #8, protease genotype 77I + 84V) was 2.8 fold and the “mean fold increase in resistance” value (Table 11 #9, protease genotype 77I + 84C) was 61.9 fold. For the same molecule, the “mean fold increase in resistance” value (Table 11 #10, protease genotype 77I + 84C) was 38.2 fold, the “mean fold increase in resistance” value (Table 11 #11, protease genotype 10I + 24I + 36I + 46I + 71V + 84C) was 51.7 fold and the “Fold change in IC50” value (Table 12, V19263, genotype 77I) was 0.9 fold. For the same molecule, the “Fold change in IC50” value (Table 12, V20160, genotype WT) was 0.7 fold, the “Fold change in IC50” value (Table 12, V021667, genotype 10I) was 1.0 fold and the “Fold change in IC50” value (Table 12, V030496, genotype 10I + 77I) was 0.7 fold. The “Fold change in IC50” value (Table 12, V048869, genotype 10I + 54M + 77I + 90M) was 28.5 fold, the “Fold change in IC50” value (Table 12, V048872, genotype 33F + 54M + 77I + 90M) was 7.4 fold and the “Fold change in IC50” value (Table 12, V048873, genotype 33F + 54M + 77I + 90M) was 7.7 fold. For the same molecule, the “Fold change in IC50” value (Table 12, V048877, genotype 10I + 33F + 77I + 90M) was 9.4 fold, the “Fold change in IC50” value (Table 12, V048878, genotype 10I + 33F + 54M + 71V + 77I + 90M) was 7.3 fold and the “Fold change in IC50” value (Table 12, V048879, genotype 10I + 33F + 54M + 71V + 77I + 90M) was 45.7 fold. For the same molecule, the “Fold change in IC50” value (Table 12, V048880, genotype 10I + 33F + 77I + 90M) was 4.9 fold, the “Fold change in IC50” value (Table 12, V052940, genotype 71V) was 0.6 fold and the “Fold change in IC50” value (Table 12, V052942, genotype 10I + 71V) was 0.9 fold. The “Fold change in IC50” value (Table 12, V052943, genotype 10I + 90M) was 2.2 fold, the “Fold change in IC50” value (Table 12, V052944, genotype 10I + 90M) was 1.4 fold and the “Fold change in IC50” value (Table 12, V052945, genotype 77I + 90M) was 3.0 fold. For the same molecule, the “Fold change in IC50” value (Table 12, V052946, genotype 71V + 90M) was 3.0 fold, the “Fold change in IC50” value (Table 12, V052947, genotype 10I + 77I + 90M) was 8.2 fold and the “Fold change in IC50” value (Table 12, V052948, genotype 10I + 71V + 90M) was 9.0 fold. For the same molecule, the “Fold change in IC50” value (Table 12, V052949, genotype 10I + 71V + 77I + 90M) was 8.6 fold, the “Fold change in IC50” value (Table 12, V052950, genotype 33F) was 1.0 fold and the “Fold change in IC50” value (Table 12, V052951, genotype 33F + 77I) was 5.2 fold. For the same molecule, the “Fold change in IC50” value (Table 12, V052953, genotype 10I + 33F + 77I) was 0.9 fold, the “Fold change in IC50” value (Table 12, V052954, genotype 33F + 77I + 90M) was 5.9 fold and the “Fold change in IC50” value (Table 12, V052955, genotype 33F + 71V + 90M) was 36.6 fold. The “Fold change in IC50” value (Table 12, V052977, genotype 10I + 33F + 54M) was 3.8 fold, the “Fold change in IC50” value (Table 12, V052978, genotype 10I + 33F + 54M + 71V + 90M) was 29.1 fold and the “Fold change in IC50” value (Table 12, V052979, genotype 10I + 54M) was 3.8 fold. For the same molecule, the “Fold change in IC50” value (Table 12, V052980, genotype 10I + 54M + 90M) was 7.0 fold, the “Fold change in IC50” value (Table 12, V052981, genotype 10I + 54M + 71V + 90M) was 8.7 fold and the “Fold change in IC50” value (Table 12, V052982, genotype 10I + 54M + 71V + 77I + 90M) was 10.1 fold. For the same molecule, the “Fold change in IC50” value (Table 12, V053832, genotype 10I + 33F) was 1.6 fold.
